According to patent US4320057A, “Aryl--pyrrolo--thiazepin--diones and aryl--piperidino--thiazepin--diones” (American Home Products Corporation, priority 1981, dated 1982):

Target: T1, angiotensin converting enzyme (Oryctolagus cuniculus, UniProt P12822)
T1 construct: A crude angiotensin converting enzyme supernatant is obtained by blending 1 gm. of rabbit lung acetone powder; tissue PelFreez Biologicals; host or cells: rabbit lung acetone powder, crude 40,000 xg supernatant
T1 sequence (P12822 34-1310): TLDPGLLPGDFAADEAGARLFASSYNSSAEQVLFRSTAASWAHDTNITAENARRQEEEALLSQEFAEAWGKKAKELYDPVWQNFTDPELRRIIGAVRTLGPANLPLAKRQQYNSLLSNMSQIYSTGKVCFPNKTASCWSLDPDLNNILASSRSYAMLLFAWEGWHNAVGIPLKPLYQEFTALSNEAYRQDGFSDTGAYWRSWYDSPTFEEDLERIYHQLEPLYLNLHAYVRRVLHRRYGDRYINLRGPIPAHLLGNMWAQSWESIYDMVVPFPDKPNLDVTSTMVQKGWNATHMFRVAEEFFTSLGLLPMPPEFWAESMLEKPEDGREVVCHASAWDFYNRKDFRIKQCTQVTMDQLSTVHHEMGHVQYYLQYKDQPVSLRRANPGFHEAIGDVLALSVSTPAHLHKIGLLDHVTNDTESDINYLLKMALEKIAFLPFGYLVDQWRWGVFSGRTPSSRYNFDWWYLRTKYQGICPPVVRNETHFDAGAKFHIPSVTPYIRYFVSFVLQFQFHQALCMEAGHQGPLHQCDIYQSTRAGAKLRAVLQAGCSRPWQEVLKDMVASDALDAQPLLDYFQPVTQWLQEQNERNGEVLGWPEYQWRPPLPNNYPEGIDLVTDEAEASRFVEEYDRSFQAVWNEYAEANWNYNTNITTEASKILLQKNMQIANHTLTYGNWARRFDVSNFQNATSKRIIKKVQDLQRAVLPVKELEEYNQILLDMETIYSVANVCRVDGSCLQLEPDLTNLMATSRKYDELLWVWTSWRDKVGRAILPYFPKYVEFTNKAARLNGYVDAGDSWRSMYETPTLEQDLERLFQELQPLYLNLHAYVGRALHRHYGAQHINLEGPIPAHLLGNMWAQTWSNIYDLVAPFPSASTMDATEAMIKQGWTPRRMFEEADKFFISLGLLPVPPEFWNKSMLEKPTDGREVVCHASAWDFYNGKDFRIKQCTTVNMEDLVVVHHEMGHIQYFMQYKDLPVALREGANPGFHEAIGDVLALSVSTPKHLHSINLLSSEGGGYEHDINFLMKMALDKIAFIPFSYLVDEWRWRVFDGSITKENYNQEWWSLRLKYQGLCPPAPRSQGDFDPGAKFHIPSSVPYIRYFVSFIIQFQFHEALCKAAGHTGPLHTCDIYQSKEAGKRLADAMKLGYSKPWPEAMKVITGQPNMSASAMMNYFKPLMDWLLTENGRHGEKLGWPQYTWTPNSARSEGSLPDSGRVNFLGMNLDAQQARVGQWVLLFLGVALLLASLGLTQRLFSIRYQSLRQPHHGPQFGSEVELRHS
Test: incubation of hippuryl-L-histidyl-L-leucine with angiotensin converting enzyme (HHL hydrolysis)
Format: biochemical, rabbit
Details: 100 ng/ml; read-out: inhibition of angiotensin converting enzyme in vitro
Experimental: The activity of the compounds of this invention was established by incubation of hippuryl-L-histidyl-L-leucine at 37° C. with angiotensin converting enzyme by the following procedure:
A crude angiotensin converting enzyme supernatant is obtained by blending 1 gm. of rabbit lung acetone powder (PelFreez Biologicals) with 35 ml of 50 mM (buffered) potassium phosphate, pH 8.3 and centrifuging for 45 min. at 40,000 xg.
The specific angiotensin converting enzyme substrate Hippuryl-L-histidyl-L-leucine (HHL-Sigma Chem. Co.) is prepared at 5 mM in 200 mM potassium phosphate buffer containing 757 mM NaCl at pH 8.3.
Incubation for the assay of HHL hydrolysis by angiotensin converting enzyme is carried out in a 37° C. gyrorotary incubator in disposable 13×100 mm tubes. Each 0.25 ml assay mixture contains the following components at the final concentrations: potassium phosphate buffer, 100 mM; NaCl, 300 mM; HHL, 5 mM; and enzyme 0.15 ml (10 mU approx.) added last to initiate the reaction. Zero time controls have 0.25 ml of 2N HCl added before the enzyme. The timed reactions are terminated with acid at 30 min. similarly and the hippuric acid freed from substrate is extracted into 1.5 ml of ethylacetate by vortex mixing for 15 sec. […]
The hippuric acid is resuspended in 1.0 ml of water, the absorbance at 228 nm is determined, and the amount present is calculated from a standard curve. […]

## CC(CSC(=O)c1ccccc1)C(=O)N1C(C(=O)O)CCC1c1ccccc1 (stereo not drawn) [α-acid of Example 7, α-and β-5-Phenyl-1-(3-benzoylthio-2-methyl-1-oxopropyl)proline]
  inhibition at 0.1 µg/mL: 5%
